Results taken from patent publication US20260070889A1, “5-PYRIDINE-1H-INDAZOLE COMPOUND, PHARMACEUTICAL COMPOSITION, AND USE” (CHINA PHARMACEUTICAL UNIVERSITY, priority 2022, published 2026).
Read-outs that look alike come from different tables or passages of the source.

Tests used:
CLK3 = CLK3 (Homo sapiens, UniProt P49761); assay: In vitro kinase inhibition, ADP-Glo enzyme activity assay; type: biochemical
Experimental: (§1) (1) The positive drug was diluted in a 4-fold gradient with DMSO in a dilution plate, with the final initial concentrations of the compound being 1 & 0.02 & 0.1 μM.
(§2) (2) The compound was diluted 50-fold into the 1× kinase reaction buffer and oscillated on an oscillator for 20 min.
(§3) (3) The 2× kinase was prepared using the 1× enzyme reaction buffer.
(§4) (4) 2 μL of the kinase was added per well to the reaction plate.
(§5) (5) 1 μL of the compound diluted in the buffer was added to each well. The plate was sealed with a plate-sealing film, centrifuged at 1000 rpm for 60 s, and incubated at 25° C. for 10 min.
(§6) (6) 4× ATP & sub mixture was prepared using the 1× enzyme reaction buffer, and 1 μL of the 4× ATP & sub mixture was added to the reaction plate.
(§7) (7) The plate was sealed with a plate-sealing film, centrifuged at 1000 rpm for 60 s, and incubated at 25° C. for 60 min.
(§8) (8) 4 μL of ADP-Glo was transferred to the 384 reaction plate, and the plate was centrifuged at 1000 rpm for 1 min and incubated at 25° C. for 40 min.
(§9) (9) 8 μL of Detection solution was transferred to the 384 reaction plate, and the plate was centrifuged at 1000 rpm for 1 min and incubated at 25° C. for 40 min.
(§10) (10) The RLU (relative luminescence unit) signal was read using a BMG multifunctional microplate reader, and the signal intensity was used to characterize the degree of the kinase activity.
(§11) • (1) the ratio of each well was calculated; • (2) the inhibition rate was calculated as follows:
(§12) compound inhibition rate (% inh)=100%−(compound−positive control)/(negative control−positive control)×100% • (3) the IC50 was calculated, and the inhibition curves of the compounds were plotted: • the following nonlinear fitting formula was used to obtain the IC50 (half maximal inhibitory concentration) of the compounds: Graphpad 7.0 software was used for data analysis.
(§13) [formula] • X: log value of the concentration of the compound, Y: inhibition rate (% inhibition).

CLK1 = CLK1 (Homo sapiens, UniProt P49759); assay: as above; type: biochemical; settings: read-out: Enzymatic activity (IC50) CLK1
Chain of CLK1 (P49759 whole entry): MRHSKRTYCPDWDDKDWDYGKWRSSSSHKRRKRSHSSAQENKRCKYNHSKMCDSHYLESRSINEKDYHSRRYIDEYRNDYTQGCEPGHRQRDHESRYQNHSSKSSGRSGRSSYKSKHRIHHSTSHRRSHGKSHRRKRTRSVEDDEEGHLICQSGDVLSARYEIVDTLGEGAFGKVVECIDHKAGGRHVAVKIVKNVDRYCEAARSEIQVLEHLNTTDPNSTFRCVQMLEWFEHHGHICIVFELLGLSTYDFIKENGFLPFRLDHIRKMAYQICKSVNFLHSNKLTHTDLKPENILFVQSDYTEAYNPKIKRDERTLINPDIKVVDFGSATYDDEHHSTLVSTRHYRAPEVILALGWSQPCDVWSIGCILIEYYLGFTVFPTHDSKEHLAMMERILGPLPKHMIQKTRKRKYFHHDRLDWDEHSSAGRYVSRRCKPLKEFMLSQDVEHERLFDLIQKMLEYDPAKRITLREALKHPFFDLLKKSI
Experimental: as §1, §2, §3, §4, §5, §6, §7, §8, §9, §10, §11, §12, §13

CLK4 = CLK4 (Homo sapiens, UniProt Q9HAZ1); assay: as above; type: biochemical; settings: read-out: Enzymatic activity (IC50) CLK4
Chain of CLK4 (Q9HAZ1 whole entry): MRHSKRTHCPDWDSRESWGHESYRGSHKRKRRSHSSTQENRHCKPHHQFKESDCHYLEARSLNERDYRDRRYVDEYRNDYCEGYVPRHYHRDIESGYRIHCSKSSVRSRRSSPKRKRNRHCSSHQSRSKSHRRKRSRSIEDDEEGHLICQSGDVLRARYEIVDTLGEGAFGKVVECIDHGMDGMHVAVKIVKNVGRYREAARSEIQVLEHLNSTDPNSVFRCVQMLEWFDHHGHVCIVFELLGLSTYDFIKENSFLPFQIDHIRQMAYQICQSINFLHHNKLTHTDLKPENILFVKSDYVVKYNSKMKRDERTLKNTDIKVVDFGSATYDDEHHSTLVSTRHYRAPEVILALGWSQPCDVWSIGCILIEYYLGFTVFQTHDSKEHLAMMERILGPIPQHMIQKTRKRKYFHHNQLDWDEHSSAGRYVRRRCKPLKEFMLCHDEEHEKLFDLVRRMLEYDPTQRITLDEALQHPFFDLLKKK
Experimental: as §1, §2, §3, §4, §5, §6, §7, §8, §9, §10, §11, §12, §13

CLK2 = CLK2 (Homo sapiens, UniProt P49760); assay: as above; type: biochemical
Chain of CLK2 (P49760 whole entry): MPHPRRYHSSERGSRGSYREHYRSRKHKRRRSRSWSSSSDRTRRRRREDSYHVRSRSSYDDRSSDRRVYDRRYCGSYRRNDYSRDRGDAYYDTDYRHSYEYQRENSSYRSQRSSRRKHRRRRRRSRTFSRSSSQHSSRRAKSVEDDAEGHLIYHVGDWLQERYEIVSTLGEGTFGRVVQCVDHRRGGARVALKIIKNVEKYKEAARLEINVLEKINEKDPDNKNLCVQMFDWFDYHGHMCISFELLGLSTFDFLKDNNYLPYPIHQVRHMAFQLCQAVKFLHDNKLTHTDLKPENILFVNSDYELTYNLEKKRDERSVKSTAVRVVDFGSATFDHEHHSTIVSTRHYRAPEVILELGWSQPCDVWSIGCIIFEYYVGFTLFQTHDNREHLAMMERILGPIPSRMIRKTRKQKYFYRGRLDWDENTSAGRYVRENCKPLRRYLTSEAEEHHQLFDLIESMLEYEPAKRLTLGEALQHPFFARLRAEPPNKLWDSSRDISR
Experimental: as §1, §2, §3, §4, §5, §6, §7, §8, §9, §10, §11, §12, §13

DYRK1A = DYRK1A (Homo sapiens, UniProt Q13627); assay: as above; type: biochemical
Experimental: as §1, §2, §3, §4, §5, §6, §7, §8, §9, §10, §11, §12, §13

ACLT model rats = assay: In vivo pharmacodynamics in osteoarthritis rats, RT-qPCR of cartilage; design: species or system rat; settings: for expression of ADAMTS5 in cartilage (RT-qPCR) / expression of IHH in cartilage (RT-qPCR) / expression of MMP3 in cartilage (RT-qPCR) / expression of MMP13 in cartilage (RT-qPCR): week 5, versus model group
Experimental: 1. 40 rats were evenly divided into 4 groups, namely, Control (normal rats injected with physiological saline into the joint cavity), Model (ACLT Model rats injected with physiological saline into the joint cavity), low-dose administration group (ACLT Model rats injected with LH020 (1.5 μg/kg) into the joint cavity), and high-dose administration group (ACLT Model rats injected with LH020 (6 μg/kg) into the joint cavity).
2. Knee osteoarthritis was induced by resection of anterior cruciate ligament of the rats (ACLT model).
3. The first week after surgery, physiological saline or LH-020 (1.5 μg/kg. 6 μg/kg) was injected into the joint cavity.
4. Week 5 after administration, cartilage was collected, and the expression of cartilage-associated proteases (MMP3, MMP13, ADAMTS5, IHH, etc.) was detected by RT-qPCR.

[1] = related art statement; cited from earlier work
[2] = read-out: Enzymatic activity (IC50) CLK3
[3] = read-out: Enzymatic activity (IC50) CLK2
[4] = read-out: Enzymatic activity (IC50) DYRK1A
[5] = high-dose group 6 μg/kg into the joint cavity, effect superior to low-dose group
[6] = low-dose group 1.5 μg/kg into the joint cavity

Chain of CLK3 (P49761 whole entry): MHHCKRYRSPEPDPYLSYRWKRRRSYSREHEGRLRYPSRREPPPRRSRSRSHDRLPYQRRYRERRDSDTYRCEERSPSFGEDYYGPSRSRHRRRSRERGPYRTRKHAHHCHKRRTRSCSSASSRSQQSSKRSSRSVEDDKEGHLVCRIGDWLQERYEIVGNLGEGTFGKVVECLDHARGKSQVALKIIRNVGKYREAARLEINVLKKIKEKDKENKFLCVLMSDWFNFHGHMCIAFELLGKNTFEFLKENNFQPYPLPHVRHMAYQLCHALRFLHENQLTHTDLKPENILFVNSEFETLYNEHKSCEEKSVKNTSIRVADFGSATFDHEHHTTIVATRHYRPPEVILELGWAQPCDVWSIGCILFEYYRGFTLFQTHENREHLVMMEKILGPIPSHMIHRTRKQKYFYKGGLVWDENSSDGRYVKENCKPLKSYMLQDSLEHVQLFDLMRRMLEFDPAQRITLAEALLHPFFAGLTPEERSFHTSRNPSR

Row | SMILES | IC50 (CLK3; [2]) | IC50 (CLK1) | IC50 (CLK4) | IC50 (CLK2; [3]) | IC50 (DYRK1A; [4]) | other results
1 | CC(C)CC(=O)Nc1cncc(-c2ccc3[nH]nc(-c4nc(=O)c5ccccc5[nH]4)c3c2)c1 [LH-001] | < 0.01 µM | < 0.01 µM | 0.05 to 0.1 µM | < 0.01 µM | 0.01 to 0.05 µM | –
2 | O=C(CC1CC1)Nc1cncc(-c2ccc3[nH]nc(-c4nc(=O)c5ccccc5[nH]4)c3c2)c1 [LH-003] | < 0.01 µM | < 0.01 µM | > 0.1 µM | < 0.01 µM | 0.05 to 0.1 µM | –
3 | O=C(Nc1cncc(-c2ccc3[nH]nc(-c4nc(=O)c5ccccc5[nH]4)c3c2)c1)C1CCCC1 [LH-004] | 0.01 to 0.05 µM | < 0.01 µM | 0.05 to 0.1 µM | 0.01 to 0.05 µM | 0.01 to 0.05 µM | –
4 | O=C(CC1CCCCC1)Nc1cncc(-c2ccc3[nH]nc(-c4nc(=O)c5ccccc5[nH]4)c3c2)c1 [LH-005] | 0.05 to 0.1 µM | 0.05 to 0.1 µM | 0.01 to 0.05 µM | 0.01 to 0.05 µM | 0.01 to 0.05 µM | –
5 | O=c1nc(-c2n[nH]c3ccc(-c4cncc(NCC5CCCCC5)c4)cc23)[nH]c2ccccc12 [LH-006] | 0.05 to 0.1 µM | 0.01 to 0.05 µM | 0.01 to 0.05 µM | 0.01 to 0.05 µM | 0.01 to 0.05 µM | –
6 | O=c1nc(-c2n[nH]c3ccc(-c4cncc(CN5CCC(F)(F)C5)c4)cc23)[nH]c2ccccc12 [LH-009] | < 0.01 µM | < 0.01 µM | 0.01 to 0.05 µM | < 0.01 µM | < 0.01 µM | –
7 | O=c1nc(-c2n[nH]c3ccc(-c4cccnc4)cc23)[nH]c2ccccc12 [LH-010] | 0.01 to 0.05 µM | 0.01 to 0.05 µM | > 0.1 µM | < 0.01 µM | 0.01 to 0.05 µM | –
8 | CN(C)Cc1cncc(-c2ccc3[nH]nc(-c4nc(=O)c5ccccc5[nH]4)c3c2)c1 [LH-011] | 0.05 to 0.1 µM | 0.05 to 0.1 µM | > 0.1 µM | < 0.01 µM | 0.05 to 0.1 µM | –
9 | CC(C)(C)C(=O)Nc1cncc(-c2ccc3[nH]nc(-c4nc(=O)c5ccccc5[nH]4)c3c2)c1 [LH-015] | 0.01 to 0.05 µM | 0.01 to 0.05 µM | < 0.01 µM | < 0.01 µM | < 0.01 µM | –
10 | O=C(Nc1cncc(-c2ccc3[nH]nc(-c4nc(=O)c5ccccc5[nH]4)c3c2)c1)C1CC(F)(F)C1 [LH-016] | 0.01 to 0.05 µM | < 0.01 µM | 0.01 to 0.05 µM | < 0.01 µM | 0.01 to 0.05 µM | –
11 | CCS(=O)(=O)Nc1cncc(-c2ccc3[nH]nc(-c4nc(=O)c5ccccc5[nH]4)c3c2)c1 [LH-017] | > 0.1 µM | < 0.01 µM | 0.05 to 0.1 µM | < 0.01 µM | < 0.01 µM | –
12 | O=c1nc(-c2n[nH]c3ccc(-c4cncc(O)c4)cc23)[nH]c2ccccc12 [LH-018] | 0.01 to 0.05 µM | 0.05 to 0.1 µM | < 0.01 µM | < 0.01 µM | < 0.01 µM | –
13 | CN1CCN(Cc2cncc(-c3ccc4[nH]nc(-c5nc(=O)c6ccccc6[nH]5)c4c3)c2)CC1 [LH-019] | > 0.1 µM | < 0.01 µM | 0.05 to 0.1 µM | < 0.01 µM | 0.01 to 0.05 µM | –
14 | CC(C)C[C@H](N)COc1cncc(-c2ccc3[nH]nc(-c4nc(=O)c5ccccc5[nH]4)c3c2)c1 [LH-020] | 0.05 to 0.1 µM | < 0.01 µM | 0.01 to 0.05 µM | < 0.01 µM | < 0.01 µM | chondroprotective effect (ACLT model rats; ACLT model rats, 1.5 and 6 μg/kg into the joint cavity): significant chondroprotective effect; expression of ADAMTS5 in cartilage (RT-qPCR) (ACLT model rats; [5]): significantly down-regulate; expression of IHH in cartilage (RT-qPCR) (ACLT model rats; [5]): significantly down-regulate; expression of MMP3 in cartilage (RT-qPCR) (ACLT model rats; [5]): significantly down-regulate; expression of MMP13 in cartilage (RT-qPCR) (ACLT model rats; [5]): significantly down-regulate; expression of ADAMTS5 in cartilage (RT-qPCR) (ACLT model rats; [6]): significantly down-regulate; expression of IHH in cartilage (RT-qPCR) (ACLT model rats; [6]): significantly down-regulate; expression of MMP3 in cartilage (RT-qPCR) (ACLT model rats; [6]): significantly down-regulate; expression of MMP13 in cartilage (RT-qPCR) (ACLT model rats; [6]): significantly down-regulate; selectivity index for CLK3 (CLK3; CLK3 versus CLK2): 41.5; IC50 (CLK3; read-out: IC50 for CLK3): 0.081 µM; IC50 (CLK2; read-out: IC50 for CLK2): 0.002 µM; IC50 (DYRK1A; read-out: IC50 for DYRK1A): 0.003 µM
15 | CC(C)C[C@H](N)COc1cncc(-c2ccc3[nH]nc(-c4nc(=O)c5ccncc5[nH]4)c3c2)c1 [LH-037] | < 0.01 µM | < 0.01 µM | 0.01 to 0.05 µM | 0.01 to 0.05 µM | < 0.01 µM | –
16 | CC(C)CC(=O)Nc1cncc(-c2ccc3[nH]nc(-c4cccnc4)c3c2)c1 [LH-039] | < 0.01 µM | 0.05 to 0.1 µM | 0.05 to 0.1 µM | 0.01 to 0.05 µM | 0.01 to 0.05 µM | –
17 | CC(C)CC(=O)Nc1cncc(-c2ccc3[nH]nc(-c4ccncc4)c3c2)c1 [LH-040] | 0.01 to 0.05 µM | 0.05 to 0.1 µM | < 0.01 µM | < 0.01 µM | < 0.01 µM | –
18 | CC(C)CC(=O)Nc1cncc(-c2ccc3[nH]nc(-c4ccc5ocnc5c4)c3c2)c1 [LH-041] | < 0.01 µM | 0.01 to 0.05 µM | 0.01 to 0.05 µM | < 0.01 µM | 0.01 to 0.05 µM | –
19 | CC(C)CC(=O)Nc1cncc(-c2ccc3[nH]nc(C4=NCc5ccccc5N4)c3c2)c1 [LH-048] | < 0.01 µM | < 0.01 µM | 0.01 to 0.05 µM | < 0.01 µM | < 0.01 µM | –
20 | FC1(F)CCN(Cc2cncc(-c3ccc4[nH]nc(C5=NCc6ccccc6N5)c4c3)c2)C1 [LH-049] | 0.01 to 0.05 µM | 0.05 to 0.1 µM | > 0.1 µM | < 0.01 µM | < 0.01 µM | –
21 | CC(C)CC(=O)Nc1cncc(-c2ccc3[nH]nc(-c4nc5c(-c6cccc(F)c6)cncc5[nH]4)c3c2)c1 [SM04690] | – | – | – | – | – | water solubility [1]: poor
